In patent US10011877B2, “Treatment of bladder cancer to overcome chemoresistance” (Genedia Biotech Co., Ltd., priority 2015, dated 2018):

How the values were obtained:
[1] = test system: H-bc-derived tumor xenografts; test: H-bc-derived tumor xenografts in nude mice, tumor weight day 25; format: in vivo, BALB/c male nude mice; conditions: H-bc tumors, Pa 45 ug/mouse intraperitoneal once in 2 days
Description: (§1) Animal experiments were undertaken in accordance with the National Institutes of Health Guide for the Care and Use of Laboratory Animals. BALB/c male nude mice aged of 8-12 weeks were used for this study. 5637 or H-bc cells were embedded in BD Matrigel Matrix (Becton, Dickinson, Franklin Lakes, N.J., USA) and subcutaneously injected into the four sites at the back of mice as following: 1.7×10^7 cells/site for 5637, 0.7×10^7 cells/site for H-bc, 4 sites/mouse, 6 mice for 5637, 6 mice for H-bc, respectively. From the fourth day after cell injection, all 5637-generated tumors were intratumorally injected with 2 nM miR-193a-3p agomiR or miR-193a-5p agomiR, while H-bc-generated tumors were injected with 4 nM miR-193a-3p/-5p/Mock antagomiR/PBS in a similar manner. From the sixth day after cell injection, three mice from 5637 and three from H-bc intraperitoneally received Pa (45 ug/mouse) once in 2 days. The remaining six mice (three from 5637 and three from H-bc) received PBS as a mock treatment control. Mice were humanely killed on day 25, and the tumors were weighed and photographed. The tumor weight was described as the mean±S.D.
(§2) Animal experiments were undertaken in accordance with the National Institutes of Health Guide for the Care and Use of Laboratory Animals. BALB/c male nude mice of 8-12 weeks of age were used for this study. […]

[2] = test system: 5637 cell-derived tumor xenograft; test: 5637-derived tumor xenografts in nude mice, tumor weight day 25; format: in vivo, BALB/c male nude mice; conditions: 5637 tumors, Pa 45 ug/mouse intraperitoneal once in 2 days
Description: as §1, §2

With `CC(=O)O[C@H]1C(=O)[C@@]2(C)[C@H]([C@H](OC(=O)c3ccccc3)[C@]3(O)C[C@H](OC(=O)[C@H](O)[C@@H](NC(=O)c4ccccc4)c4ccccc4)C(C)=C1C3(C)C)[C@]1(OC(C)=O)CO[C@@H]1C[C@@H]2O` [Pacilitaxol, Paclitaxel] the “tumor weight ratio of the Pa treated over PBS treated” value [1] was 0.40 and the “tumor weight ratio of the Pa treated over PBS treated” value [2] was 0.283.
